From patent publication US20090253669A1, “Substituted Sulfonamide Compounds” (GRUENENTHAL GmbH, priority 2008, published 2009)
Read-outs that look alike come from different tables or passages of the source.

Experiments:
[1] = target: T1, B1R receptor of the rat (rB1R) (Rattus norvegicus, UniProt P97583); assay: FLIPR Ca2+ assay on rB1R-transfected CHO K1 cells, antagonistic action; assay type: cell-based
T1 construct: host or cells: CHO K1 cells
T1 sequence (P97583 1-337): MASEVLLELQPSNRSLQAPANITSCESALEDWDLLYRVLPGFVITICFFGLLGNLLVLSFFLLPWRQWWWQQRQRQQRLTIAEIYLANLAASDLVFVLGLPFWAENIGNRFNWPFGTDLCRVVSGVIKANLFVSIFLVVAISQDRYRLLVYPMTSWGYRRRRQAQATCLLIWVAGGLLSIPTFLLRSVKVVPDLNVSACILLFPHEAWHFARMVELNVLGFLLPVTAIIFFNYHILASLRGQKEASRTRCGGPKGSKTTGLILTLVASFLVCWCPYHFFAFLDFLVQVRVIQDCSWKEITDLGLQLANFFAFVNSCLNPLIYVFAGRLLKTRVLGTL

[2] = target: T2, human B1R receptor (hB1R) (Homo sapiens, UniProt P46663); assay: FLIPR Ca2+ assay on hB1R-transfected CHO K1 cells, antagonistic action; assay type: cell-based
T2 construct: host or cells: CHO K1 cells
T2 sequence (P46663 1-353): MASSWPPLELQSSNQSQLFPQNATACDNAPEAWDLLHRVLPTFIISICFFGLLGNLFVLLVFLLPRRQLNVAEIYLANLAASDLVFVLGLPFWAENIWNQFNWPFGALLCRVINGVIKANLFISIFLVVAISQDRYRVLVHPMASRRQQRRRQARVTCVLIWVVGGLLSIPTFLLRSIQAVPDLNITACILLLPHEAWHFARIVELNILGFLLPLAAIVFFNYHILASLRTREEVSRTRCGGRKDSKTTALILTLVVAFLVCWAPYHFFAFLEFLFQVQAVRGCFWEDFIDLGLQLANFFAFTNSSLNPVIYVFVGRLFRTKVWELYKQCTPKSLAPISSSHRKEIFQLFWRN

[3] = CHO-K1, 10 μM test substance, agonist Des-Arg9-bradykinin 100 nM, % of maximum achievable inhibition, read-out: rB1R [10 μM] % inhibition
[4] = CHO-K1, 10 μM test substance, agonist Lys-Des-Arg9-bradykinin 0.5 nM, % of maximum achievable inhibition, read-out: hB1R [10 μM] % inhibition

`CN1CCN(C2(c3cccc(F)c3)CCN(C(=O)CCCC3CCCCN3S(=O)(=O)c3cccc4ccccc34)CC2)CC1` (centres unmarked) [Compound 215, 1-(4-(3-Fluorophenyl)-4-(4-methylpiperazin-1-yl)piperidin-1-yl)-4-(1-(naphthalen-1-ylsulfonyl)piperidin-2-yl)butan-1-one] showed an inhibition at 10 µM ([1]; CHO-K1, read-out: rB1R [10 μM] % inhibition) of 100% and an inhibition at 10 µM ([2]; CHO-K1, read-out: hB1R [10 μM] % inhibition) of 100%.

For `COc1cc(C)c(S(=O)(=O)N2CCCCC2CCCC(=O)N2CCC(c3cccc(F)c3)(N3CCN(C)CC3)CC2)c(C)c1` (centres unmarked) [Compound 214, 1-(4-(3-Fluorophenyl)-4-(4-methylpiperazin-1-yl)piperidin-1-yl)-4-(1-(4-methoxy-2,6-dimethylphenylsulfonyl)piperidin-2-yl)butan-1-one], the inhibition at 10 µM [1, 3] was 101% and the inhibition at 10 µM [2, 4] was 99%.

Work on `COc1cc(C)c(S(=O)(=O)N2CCCCC2COCC(=O)N(C)CCCC2CCC(c3cccc(F)c3)(N3CCCC3)CC2)c(C)c1` (centres unmarked) [Compound 204, N-(3-(4-(3-fluorophenyl)-4-(pyrrolidin-1-yl)cyclohexyl)propyl)-2-((1-(4-methoxy-2,6-dimethylphenylsulfonyl)piperidin-2-yl)methoxy)-N-methylacetamide] yielded an inhibition at 10 µM [1, 3] of 103% and an inhibition at 10 µM [2, 4] of 99%.

With `Cc1cc(S(=O)(=O)N2CCCCC2CCC(=O)N2CCC(c3ccccc3)(N3CCN(c4ccncc4)CC3)CC2)c(C)cc1Cl` (centres unmarked) [Compound 99, 3-(1-(4-chloro-2,5-dimethylphenylsulfonyl)piperidin-2-yl)-1-(4-phenyl-4-(4-(pyridin-4-yl)piperazin-1-yl)piperidin-1-yl)propan-1-one] the inhibition at 10 µM [1, 3] was 90% and the inhibition at 10 µM [2, 4] was 100%.

`CN(CCCC1CCC(c2ccccc2)(N2CCCC2)CC1)C(=O)CC1CCCCN1S(=O)(=O)c1cccc(C(F)(F)F)c1` (centres unmarked) [Compound 37, N-methyl-N-(3-(4-phenyl-4-(pyrrolidin-1-yl)cyclohexyl)propyl)-2-(1-(3-(trifluoromethyl)phenylsulfonyl)piperidin-2-yl)acetamide] gave an inhibition at 10 µM [1, 3] of 101% and an inhibition at 10 µM [2, 4] of 103%.

Compound `COc1cc(C)c(S(=O)(=O)N2CCCC2COCC(=O)N(C)CC2CCC(Cc3ccccc3)(N3CCN(C)CC3)CC2)c(C)c1` (centres unmarked) [Compound 154, N-((4-benzyl-4-(4-methylpiperazin-1-yl)cyclohexyl)methyl)-2-((1-(4-methoxy-2,6-dimethylphenylsulfonyl)pyrrolidin-2-yl)methoxy)-N-methylacetamide] has an inhibition at 10 µM [1, 3] of 101% and an inhibition at 10 µM [2, 4] of 95%.

`CN1CCN(C2(CCc3ccccc3)CCC(CN(C)C(=O)COCC3CCCCN3S(=O)(=O)c3c(Cl)cc(Cl)cc3Cl)CC2)CC1` (centres unmarked) [Compound 161, N-methyl-N-((4-(4-methylpiperazin-1-yl)-4-phenethylcyclohexyl)methyl)-2-((1-(2,4,6-trichlorophenylsulfonyl)piperidin-2-yl)methoxy)acetamide] showed an inhibition at 10 µM [1, 3] of 98% and an inhibition at 10 µM [2, 4] of 101%.

Work on `COc1cc(C)c(S(=O)(=O)N(C)CCOCC(=O)NC2CCC(c3ccccc3)(N3CCOCC3)CC2)c(C)c1` (centres unmarked) [Compound 167, 2-(2-(4-methoxy-N,2,6-trimethylphenylsulfonamido)ethoxy)-N-(4-morpholino-4-phenylcyclohexyl)acetamide] yielded an inhibition at 10 µM [1, 3] of 88% and an inhibition at 10 µM [2, 4] of 100%.

`COc1cc(C)c(S(=O)(=O)N(C)CCOCC(=O)N(C)CCC2CCC(c3ccccc3)(N(C)C)CC2)c(C)c1` (centres unmarked) [Compound 72, N-(2-(4-(dimethylamino)-4-phenylcyclohexyl)ethyl)-2-(2-(4-methoxy-N,2,6-trimethylphenylsulfonamido)ethoxy)-N-methylacetamide] showed an inhibition at 10 µM [1, 3] of 99% and an inhibition at 10 µM [2, 4] of 103%.

`COc1cc(C)c(S(=O)(=O)N2CCCC(OCC(=O)N(C)CC3CCC(Cc4ccccc4)(N4CCN(C)CC4)CC3)C2)c(C)c1` (centres unmarked) [Compound 184, N-((4-benzyl-4-(4-methylpiperazin-1-yl)cyclohexyl)methyl)-2-(1-(4-methoxy-2,6-dimethylphenylsulfonyl)piperidin-3-yloxy)-N-methylacetamide] gave an inhibition at 10 µM [1, 3] of 65% and an inhibition at 10 µM [2, 4] of 93%.

`COc1cc(C)c(S(=O)(=O)N(C)CCOCC(=O)N2CCC(Cc3ccccc3)(N(C)C)CC2)c(C)c1` [Compound 63, N-(2-(2-(4-benzyl-4-(dimethylamino)piperidin-1-yl)-2-oxoethoxy)ethyl)-4-methoxy-N,2,6-trimethylbenzenesulfonamide] showed an inhibition at 10 µM [1, 3] of 100% and an inhibition at 10 µM [2, 4] of 102%.

Compound `COc1cc(C)c(S(=O)(=O)N(C)CCOCC(=O)N2CCC(CCc3ccccc3)(N3CCN(C)CC3)CC2)c(C)c1` [Compound 87, 4-methoxy-N,2,6-trimethyl-N-(2-(2-(4-(4-methylpiperazin-1-yl)-4-phenethylpiperidin-1-yl)-2-oxoethoxy)ethyl)benzenesulfonamide] has an inhibition at 10 µM [1, 3] of 98% and an inhibition at 10 µM [2, 4] of 99%.

With `CN(CCC1CCC(Cc2ccccc2)(N2CCCC2)CC1)C(=O)CC1CCCCN1S(=O)(=O)c1cccc(C(F)(F)F)c1` (centres unmarked) [Compound 121, N-(2-(4-benzyl-4-(pyrrolidin-1-yl)cyclohexyl)ethyl)-N-methyl-2-(1-(3-(trifluoromethyl)phenylsulfonyl)piperidin-2-yl)acetamide] the inhibition at 10 µM [1, 3] was 66% and the inhibition at 10 µM [2, 4] was 102%.

`CN(CCCC1CCC(Cc2ccccc2)(N2CCCC2)CC1)C(=O)CC(NS(=O)(=O)c1ccc2ccccc2c1)c1ccccc1` (centres unmarked) [Compound 74, N-(3-(4-benzyl-4-(pyrrolidin-1-yl)cyclohexyl)propyl)-N-methyl-3-(naphthalene-2-sulfonamido)-3-phenylpropanamide] was tested, and the inhibition at 10 µM [1, 3] was 99% and the inhibition at 10 µM [2, 4] was 102%.

`COc1cc(C)c(S(=O)(=O)N(C)CCOCC(=O)N(C)CCCC2CCC(c3ccccc3)(N3CCCC3)CC2)c(C)c1` (centres unmarked) [Compound 83, 2-(2-(4-methoxy-N,2,6-trimethylphenylsulfonamido)ethoxy)-N-methyl-N-(3-(4-phenyl-4-(pyrrolidin-1-yl)cyclohexyl)propyl)acetamide] gave an inhibition at 10 µM [1, 3] of 99% and an inhibition at 10 µM [2, 4] of 103%.

With `COc1cc(C)c(S(=O)(=O)N2CCCC(OCC(=O)NC3CCC(Cc4ccccc4)(N4CCCC4)CC3)C2)c(C)c1` (centres unmarked) [Compound 181, N-(4-benzyl-4-(pyrrolidin-1-yl)cyclohexyl)-2-(1-(4-methoxy-2,6-dimethylphenylsulfonyl)piperidin-3-yloxy)acetamide] the inhibition at 10 µM [1, 3] was 71% and the inhibition at 10 µM [2, 4] was 78%.

Compound `CN(CC1CCC(c2ccccc2)(N2CCCC2)CC1)C(=O)CC(NS(=O)(=O)c1ccc2ccccc2c1)c1ccccc1` (centres unmarked) [Compound 92, N-methyl-3-(naphthalene-2-sulfonamido)-3-phenyl-N-((4-phenyl-4-(pyrrolidin-1-yl)cyclohexyl)methyl)propanamide] has an inhibition at 10 µM [1, 3] of 95% and an inhibition at 10 µM [2, 4] of 101%.

With `CN(C)C1(c2ccccc2)CCC(NC(=O)COC2CCN(S(=O)(=O)c3c(Cl)cc(Cl)cc3Cl)C2)CC1` (centres unmarked) [Compound 198, N-(4-(dimethylamino)-4-phenylcyclohexyl)-2-(1-(2,4,6-trichlorophenylsulfonyl)pyrrolidin-3-yloxy)acetamide] the inhibition at 10 µM [1, 3] was 47% and the inhibition at 10 µM [2, 4] was 63%.

Work on `CN(CCOCC(=O)NC1CCC(c2ccccc2)(N2CCCC2)CC1)S(=O)(=O)c1ccc(Cl)cc1Cl` (centres unmarked) [Compound 179, 2-(2-(2,4-dichloro-N-methylphenylsulfonamido)ethoxy)-N-(4-phenyl-4-(pyrrolidin-1-yl)cyclohexyl)acetamide] yielded an inhibition at 10 µM [1, 3] of 75% and an inhibition at 10 µM [2, 4] of 41%.

For `COc1cc(C)c(S(=O)(=O)N2CCCCC2COCC(=O)N2CCC(c3ccccc3)(N(C)C)CC2)c(C)c1` (centres unmarked) [Compound 75, 1-(4-(dimethylamino)-4-phenylpiperidin-1-yl)-2-((1-(4-methoxy-2,6-dimethylphenylsulfonyl)piperidin-2-yl)methoxy)ethanone], the “rB1R [10 μM] % inhibition” value ([1]; 10 μM test substance, agonist Des-Arg9-bradykinin 100 nM, % of maximum achievable inhibition) was 99% and the “hB1R [10 μM] % inhibition” value ([2]; 10 μM test substance, agonist Lys-Des-Arg9-bradykinin 0.5 nM, % of maximum achievable inhibition) was 103%.

`COc1cc(C)c(S(=O)(=O)N2CCC(OCC(=O)NC3CCC(c4ccccc4)(N4CCCCC4)CC3)C2)c(C)c1` (centres unmarked) [Compound 27, 2-(1-(4-methoxy-2,6-dimethylphenylsulfonyl)pyrrolidin-3-yloxy)-N-(4-phenyl-4-(piperidin-1-yl)cyclohexyl)acetamide] gave an inhibition at 10 µM [1, 3] of 51% and an inhibition at 10 µM [2, 4] of 69%.

With `O=C(COCC1CCCN1S(=O)(=O)c1c(Cl)cc(Cl)cc1Cl)NC1CCC(c2ccccc2)(N2CCCC2)CC1` (centres unmarked) [Compound 146, N-(4-phenyl-4-(pyrrolidin-1-yl)cyclohexyl)-2-((1-(2,4,6-trichlorophenylsulfonyl)pyrrolidin-2-yl)methoxy)acetamide] the inhibition at 10 µM [1, 3] was 108% and the inhibition at 10 µM [2, 4] was 64%.
